ChEMBL document CHEMBL1143050, “QSAR study on permeability of hydrophobic compounds with artificial membranes” (Bioorg Med Chem, 2007)
Residues, ends and D or L forms follow the SMILES beside them.

Legend:
[1] = Partition coefficient, log P of the compound; details: octanol/water
[2] = Permeability coefficient through artificial membrane in presence of unstirred water layer by PAMPA
[3] = Permeability coefficient through artificial membrane in presence of stirred water layer
Caco-2 [4] = assay: Permeability from basolateral to apical side of the Caco-2 cell membrane; format: ADME, cell-based; details: human
Caco-2 [5] = assay: Permeability from apical to basolateral side of the Caco-2 cell membrane; format: ADME, cell-based; details: human

| logP [1] | Compound | LogP app [2] | Papp [2] | Papp ([3]; PAMPA) | LogP app ([3]; artificial membrane) | LogP app (Caco-2 [4]) | LogP app (Caco-2 [5]) | LogP app ([3]; PAMPA) |
| --- | --- | --- | --- | --- | --- | --- | --- | --- |
| 0.3 | NC(=O)[C@@H](N)Cc1c[nH]c2ccccc12 | -5.56 | – | – | – | – | – | – |
| 0.73 | CC(=O)N[C@@H](Cc1c[nH]c2ccccc12)C(=O)N[C@H](C(N)=O)C(C)C | -6.18 | – | – | – | – | – | – |
| 3.3 | CCc1ccc(C)nc1 | -5.55 | 2.85 ×10⁻⁶ cm/s | 12.9 ×10⁻⁶ cm/s | -4.89 | – | – | – |
| 0.65 | CC(=O)N[C@H](Cc1c[nH]c2ccccc12)C(=O)N[C@H](C(N)=O)C(C)C | -6.14 | – | – | – | – | – | – |
| 0.32 | CC(=O)N[C@@H](Cc1ccc(O)cc1)C(=O)N[C@@H](CC(C)C)C(N)=O (Ac-Tyr-Leu-NH2) | -6.54 | – | – | – | – | – | – |
| 0.54 | CC(=O)N[C@@H](Cc1ccc(O)cc1)C(=O)N[C@@H](Cc1ccccc1)C(N)=O (Ac-Tyr-Phe-NH2) | – | – | – | – | – | – | – |
| -0.48 | NCC(=O)N[C@@H](Cc1c[nH]c2ccccc12)C(N)=O (H-Gly-Trp-NH2) | -6.38 | – | – | – | – | – | – |
| 1.38 | NC(=O)[C@H](Cc1c[nH]c2ccccc12)NC(=O)[C@@H](N)Cc1ccccc1 (H-Phe-Trp-NH2) | -5.22 | – | – | – | – | – | – |
| 0.4 | CC(C)[C@H](NC(=O)[C@H](C)NC(=O)[C@@H](N)Cc1c[nH]c2ccccc12)C(N)=O (H-Trp-Ala-Val-NH2) | -6.62 | – | – | – | – | – | – |
| 0.42 | CC(=O)N[C@@H](Cc1c[nH]c2ccccc12)C(N)=O [ACETYLTRYPTOPHANAMIDE] | -5.72 | – | – | – | – | – | – |
| 1.43 | Clc1cccc(Cl)c1N=C1NCCN1 [CLONIDINE] | -4.98 | – | 11.4 ×10⁻⁶ cm/s | – | – | – | -4.94 |

Continued, molecule first:

| Compound | logP [1] | LogP app [2] | Papp [2] | Papp ([3]; PAMPA) | LogP app ([3]; artificial membrane) | LogP app (Caco-2 [4]) | LogP app (Caco-2 [5]) | LogP app ([3]; PAMPA) |
| --- | --- | --- | --- | --- | --- | --- | --- | --- |
| O=C1N[C@@H](Cc2c[nH]c3ccccc23)C(=O)N[C@H]1Cc1c[nH]c2ccccc12 | 2.04 | -5.04 | – | – | – | – | – | – |
| O=C1CNC(=O)[C@H](Cc2c[nH]c3ccccc23)N1 | 0.07 | -6.02 | – | – | – | – | – | – |
| Cc1ccc(O)c(C)c1 | – | -4.61 | 24.3 ×10⁻⁶ cm/s | 263 ×10⁻⁶ cm/s | -3.58 | – | – | – |
| O=[N+]([O-])c1cc(Cl)ccc1Cl | 3.03 | -5.11 | 7.78 ×10⁻⁶ cm/s | 80.7 ×10⁻⁶ cm/s | -4.09 | – | – | – |
| O=C(O)c1c[nH]c2ccccc12 | – | -6.1 | – | – | – | – | – | – |
| Nc1ccccc1Cl | – | -4.48 | 33.1 ×10⁻⁶ cm/s | 246 ×10⁻⁶ cm/s | -3.63 | – | – | – |
| Oc1ccc(Cl)cc1Cl [2,4-DICHLOROPHENOL] | – | -4.93 | 11.9 ×10⁻⁶ cm/s | 127 ×10⁻⁶ cm/s | -3.9 | – | – | – |
| Oc1ccccc1Cl [2-CHLOROPHENOL] | – | -4.3 | 50 ×10⁻⁶ cm/s | 15.2 ×10⁻⁶ cm/s | -4.82 | – | – | – |
| Nc1ccccc1[N+](=O)[O-] [2-NITROANILINE] | – | -4.54 | 28.6 ×10⁻⁶ cm/s | 229 ×10⁻⁶ cm/s | -3.64 | – | – | – |
| Nc1cccc(Cl)c1 [3-CHLOROANILINE] | – | -4.44 | 36.7 ×10⁻⁶ cm/s | 261 ×10⁻⁶ cm/s | -3.58 | – | – | – |
| O=[N+]([O-])c1cccc(O)c1 [3-NITRO-PHENOL] | – | -4.77 | 17.1 ×10⁻⁶ cm/s | 69.4 ×10⁻⁶ cm/s | -4.16 | – | – | – |
| Nc1cccc([N+](=O)[O-])c1 [3-NITROANILINE] | – | -4.67 | 21.6 ×10⁻⁶ cm/s | 196 ×10⁻⁶ cm/s | -3.7 | – | – | – |
| Nc1ccc(Cl)cc1 [4-CHLOROANILINE] | 1.88 | -4.38 | 41.8 ×10⁻⁶ cm/s | 258 ×10⁻⁶ cm/s | -3.59 | – | – | – |
| N#Cc1ccc(O)cc1 [4-CYANOPHENOL] | – | -4.77 | 17 ×10⁻⁶ cm/s | 22.3 ×10⁻⁶ cm/s | -4.65 | – | – | – |
| CC(=O)Nc1ccc(O)cc1 [ACETAMINOPHEN] | – | -6.04 | – | 2.22 ×10⁻⁶ cm/s | -5.65 | – | – | – |
| Nc1ccccc1 [ANILINE] | – | -4.12 | 75.9 ×10⁻⁶ cm/s | 306 ×10⁻⁶ cm/s | -3.51 | – | – | – |
| Cc1cc(=O)n(-c2ccccc2)n1C [ANTIPYRINE] | – | -5.54 | – | – | – | – | – | – |
| CCNc1nc(Cl)nc(NC(C)C)n1 [ATRAZINE] | – | -4.53 | 29.2 ×10⁻⁶ cm/s | 72.1 ×10⁻⁶ cm/s | -4.14 | -4.45 | -4.39 | – |
| c1ccc(-c2ccccc2)cc1 [BIPHENYL] | 4.01 | -5.95 | 1.12 ×10⁻⁶ cm/s | 53.3 ×10⁻⁶ cm/s | – | – | – | -4.27 |
| O=C(N[C@H](CO)[C@H](O)c1ccc([N+](=O)[O-])cc1)C(Cl)Cl [CHLORAMPHENICOL] | – | – | – | 5.75 ×10⁻⁶ cm/s | – | – | – | – |
| Cc1cc(C)cc(C(=O)N(NC(=O)c2ccc3c(c2C)CCCO3)C(C)(C)C)c1 [CHROMAFENOZIDE] | 2.7 | -4.78 | 16.7 ×10⁻⁶ cm/s | – | – | – | – | – |
